Results: ChEMBL document CHEMBL4800722, “Data for DCP probe BI 605906” (2021)

Legend:
[1] = biological target: Interleukin-1 receptor-associated kinase 3 (Homo sapiens, UniProt Q9Y616); experiment: Dose response measurement (IRAK3)
[2] = biological target: Adrenergic receptor alpha-2 (Rattus norvegicus) (UniProt P22086+P19328+P22909); experiment: ALPHA2/R Eurofins SafetyScreen44 (BI); format: protein assay
[3] = biological target: Cyclin-dependent kinase 5 (Homo sapiens) (UniProt Q00535); experiment: CDK5 (INACTIVE) Invitrogen Lab (UK) kinase screen (BI); conditions: Compound concentration 1.0 uM
[4] = biological target: Serine/threonine-protein kinase 38-like (Homo sapiens) (UniProt Q9Y2H1); experiment: STK38L (NDR2) Invitrogen Lab (UK) kinase screen (BI); conditions: Compound concentration 1.0 uM
[5] = biological target: Serine/threonine-protein kinase WNK3 (Homo sapiens) (UniProt Q9BYP7); experiment: WNK3 Invitrogen Lab (UK) kinase screen (BI); conditions: Compound concentration 1.0 uM
[6] = biological target: Casein kinase I isoform gamma-1 (Homo sapiens) (UniProt Q9HCP0); experiment: CSNK1G1 Invitrogen Lab (UK) kinase screen (BI); conditions: Compound concentration 1.0 uM
[7] = biological target: Ephrin type-B receptor 1 (Homo sapiens) (UniProt P54762); experiment: EPHB1 Invitrogen Lab (UK) kinase screen (BI); conditions: Compound concentration 1.0 uM
[8] = biological target: Tyrosine-protein kinase Fgr (Homo sapiens) (UniProt P09769); experiment: FGR Invitrogen Lab (UK) kinase screen (BI); conditions: Compound concentration 1.0 uM
[9] = biological target: Leucine-rich repeat serine/threonine-protein kinase 2 (Homo sapiens) (UniProt Q5S007); experiment: LRRK2_FL Invitrogen Lab (UK) kinase screen (BI); conditions: Compound concentration 1.0 uM
[10] = biological target: Protein kinase C epsilon type (Homo sapiens) (UniProt Q02156); experiment: PRKCE Invitrogen Lab (UK) kinase screen (BI); conditions: Compound concentration 1.0 uM
[11] = biological target: Glycogen synthase kinase-3 beta (Homo sapiens) (UniProt P49841); experiment: GSK3B DUNDEE kinase screen (BI); conditions: Compound concentration 10.0 uM
[12] = biological target: Myosin light chain kinase, smooth muscle (Homo sapiens) (UniProt Q15746); experiment: SMMLCK DUNDEE kinase screen (BI); conditions: Compound concentration 10.0 uM
[13] = biological target: 5-hydroxytryptamine receptor 1D (Homo sapiens) (UniProt P28221); conditions: Compound concentration 10.0 uM
[14] = biological target: D(1A) dopamine receptor (Homo sapiens) (UniProt P21728); conditions: Compound concentration 10.0 uM
[15] = biological target: Delta-type opioid receptor (Homo sapiens) (UniProt P41143); conditions: Compound concentration 10.0 uM
[16] = biological target: Muscarinic acetylcholine receptor M4 (Homo sapiens) (UniProt P08173); conditions: Compound concentration 10.0 uM
[17] = biological target: D(2) dopamine receptor (Homo sapiens) (UniProt P14416); conditions: Compound concentration 10.0 uM
[18] = organism: Rattus norvegicus; conditions: Compound concentration 10.0 uM
[19] = biological target: Cyclin-dependent kinase 16 (Homo sapiens) (UniProt Q00536); conditions: Compound concentration 1.0 uM
[20] = biological target: Serine/threonine-protein kinase tousled-like 1 (Homo sapiens) (UniProt Q9UKI8); conditions: Compound concentration 1.0 uM
[21] = biological target: G protein-coupled receptor kinase 3 (Homo sapiens) (UniProt P35626); conditions: Compound concentration 1.0 uM
[22] = biological target: Bone morphogenetic protein receptor type-1A (Homo sapiens) (UniProt P36894); conditions: Compound concentration 1.0 uM
[23] = biological target: Calcium/calmodulin-dependent protein kinase type II subunit beta (Homo sapiens) (UniProt Q13554); conditions: Compound concentration 1.0 uM
[24] = biological target: Cyclin-dependent kinase 5/CDK5 activator 1 (Homo sapiens) (UniProt Q00535+Q15078); conditions: Compound concentration 1.0 uM
[25] = biological target: Dual specificity protein kinase CLK1 (Homo sapiens) (UniProt P49759); conditions: Compound concentration 1.0 uM
[26] = biological target: Dual specificity protein kinase CLK2 (Homo sapiens) (UniProt P49760); conditions: Compound concentration 1.0 uM
[27] = biological target: Casein kinase I isoform gamma-3 (Homo sapiens) (UniProt Q9Y6M4); conditions: Compound concentration 1.0 uM
[28] = biological target: Casein kinase II subunit alpha' (Homo sapiens) (UniProt P19784); conditions: Compound concentration 1.0 uM
[29] = biological target: Death-associated protein kinase 1 (Homo sapiens) (UniProt P53355); conditions: Compound concentration 1.0 uM
[30] = biological target: Dual specificity tyrosine-phosphorylation-regulated kinase 1A (Homo sapiens) (UniProt Q13627); conditions: Compound concentration 1.0 uM
[31] = biological target: Eukaryotic elongation factor 2 kinase (Homo sapiens) (UniProt O00418); conditions: Compound concentration 1.0 uM
[32] = biological target: Ephrin type-B receptor 3 (Homo sapiens) (UniProt P54753); conditions: Compound concentration 1.0 uM
[33] = biological target: G protein-coupled receptor kinase 5 (Homo sapiens) (UniProt P34947); conditions: Compound concentration 1.0 uM
[34] = biological target: Glycogen synthase kinase-3 alpha (Homo sapiens) (UniProt P49840); conditions: Compound concentration 1.0 uM
[35] = biological target: Glycogen synthase kinase-3 beta (Homo sapiens) (UniProt P49841)
[36] = biological target: Tyrosine-protein kinase HCK (Homo sapiens) (UniProt P08631); conditions: Compound concentration 1.0 uM
[37] = biological target: LIM domain kinase 2 (Homo sapiens) (UniProt P53671); conditions: Compound concentration 1.0 uM
[38] = biological target: Mitogen-activated protein kinase kinase kinase 2 (Homo sapiens) (UniProt Q9Y2U5); conditions: Compound concentration 1.0 uM
[39] = biological target: Hepatocyte growth factor receptor (Homo sapiens) (UniProt P08581)
[40] = biological target: Serine/threonine-protein kinase PAK 6 (Homo sapiens) (UniProt Q9NQU5); conditions: Compound concentration 1.0 uM
[41] = biological target: Serine/threonine-protein kinase PLK3 (Homo sapiens) (UniProt Q9H4B4); conditions: Compound concentration 1.0 uM
[42] = biological target: Tyrosine-protein kinase Srms (Homo sapiens) (UniProt Q9H3Y6); conditions: Compound concentration 1.0 uM
[43] = biological target: Testis-specific serine/threonine-protein kinase 2 (Homo sapiens) (UniProt Q96PF2); conditions: Compound concentration 1.0 uM
[44] = biological target: SRSF protein kinase 3 (Homo sapiens) (UniProt Q9UPE1); conditions: Compound concentration 1.0 uM
[45] = biological target: Serine/threonine-protein kinase 3 (Homo sapiens) (UniProt Q13188); conditions: Compound concentration 10.0 uM
Sequence of Serine/threonine-protein kinase 3 (Homo sapiens) (Q13188 whole entry): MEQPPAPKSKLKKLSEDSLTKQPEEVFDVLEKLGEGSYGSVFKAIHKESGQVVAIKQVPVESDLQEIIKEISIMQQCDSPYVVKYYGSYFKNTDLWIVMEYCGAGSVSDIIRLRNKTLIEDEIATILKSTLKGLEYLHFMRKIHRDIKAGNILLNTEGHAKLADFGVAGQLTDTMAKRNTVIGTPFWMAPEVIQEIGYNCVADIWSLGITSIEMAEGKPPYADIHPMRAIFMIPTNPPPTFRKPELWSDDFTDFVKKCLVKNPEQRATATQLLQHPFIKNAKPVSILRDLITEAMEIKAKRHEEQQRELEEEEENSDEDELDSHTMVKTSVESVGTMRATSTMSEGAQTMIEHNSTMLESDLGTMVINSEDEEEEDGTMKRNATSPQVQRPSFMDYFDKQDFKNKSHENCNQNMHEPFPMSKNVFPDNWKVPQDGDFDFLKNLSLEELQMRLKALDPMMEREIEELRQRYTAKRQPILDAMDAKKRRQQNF

Sequence of Glycogen synthase kinase-3 beta (Homo sapiens) (P49841 whole entry, looked up): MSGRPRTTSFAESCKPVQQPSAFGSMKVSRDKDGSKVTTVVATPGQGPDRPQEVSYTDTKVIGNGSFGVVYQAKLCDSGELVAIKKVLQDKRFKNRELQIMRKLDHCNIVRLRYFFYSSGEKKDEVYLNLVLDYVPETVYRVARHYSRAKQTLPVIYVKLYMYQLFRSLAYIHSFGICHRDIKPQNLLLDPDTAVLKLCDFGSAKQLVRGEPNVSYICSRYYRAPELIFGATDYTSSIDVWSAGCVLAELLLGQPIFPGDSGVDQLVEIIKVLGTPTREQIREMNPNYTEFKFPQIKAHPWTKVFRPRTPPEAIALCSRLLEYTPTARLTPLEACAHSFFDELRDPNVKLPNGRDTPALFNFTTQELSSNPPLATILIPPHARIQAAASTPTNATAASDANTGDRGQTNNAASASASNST
Sequence of Hepatocyte growth factor receptor (Homo sapiens) (P08581 whole entry): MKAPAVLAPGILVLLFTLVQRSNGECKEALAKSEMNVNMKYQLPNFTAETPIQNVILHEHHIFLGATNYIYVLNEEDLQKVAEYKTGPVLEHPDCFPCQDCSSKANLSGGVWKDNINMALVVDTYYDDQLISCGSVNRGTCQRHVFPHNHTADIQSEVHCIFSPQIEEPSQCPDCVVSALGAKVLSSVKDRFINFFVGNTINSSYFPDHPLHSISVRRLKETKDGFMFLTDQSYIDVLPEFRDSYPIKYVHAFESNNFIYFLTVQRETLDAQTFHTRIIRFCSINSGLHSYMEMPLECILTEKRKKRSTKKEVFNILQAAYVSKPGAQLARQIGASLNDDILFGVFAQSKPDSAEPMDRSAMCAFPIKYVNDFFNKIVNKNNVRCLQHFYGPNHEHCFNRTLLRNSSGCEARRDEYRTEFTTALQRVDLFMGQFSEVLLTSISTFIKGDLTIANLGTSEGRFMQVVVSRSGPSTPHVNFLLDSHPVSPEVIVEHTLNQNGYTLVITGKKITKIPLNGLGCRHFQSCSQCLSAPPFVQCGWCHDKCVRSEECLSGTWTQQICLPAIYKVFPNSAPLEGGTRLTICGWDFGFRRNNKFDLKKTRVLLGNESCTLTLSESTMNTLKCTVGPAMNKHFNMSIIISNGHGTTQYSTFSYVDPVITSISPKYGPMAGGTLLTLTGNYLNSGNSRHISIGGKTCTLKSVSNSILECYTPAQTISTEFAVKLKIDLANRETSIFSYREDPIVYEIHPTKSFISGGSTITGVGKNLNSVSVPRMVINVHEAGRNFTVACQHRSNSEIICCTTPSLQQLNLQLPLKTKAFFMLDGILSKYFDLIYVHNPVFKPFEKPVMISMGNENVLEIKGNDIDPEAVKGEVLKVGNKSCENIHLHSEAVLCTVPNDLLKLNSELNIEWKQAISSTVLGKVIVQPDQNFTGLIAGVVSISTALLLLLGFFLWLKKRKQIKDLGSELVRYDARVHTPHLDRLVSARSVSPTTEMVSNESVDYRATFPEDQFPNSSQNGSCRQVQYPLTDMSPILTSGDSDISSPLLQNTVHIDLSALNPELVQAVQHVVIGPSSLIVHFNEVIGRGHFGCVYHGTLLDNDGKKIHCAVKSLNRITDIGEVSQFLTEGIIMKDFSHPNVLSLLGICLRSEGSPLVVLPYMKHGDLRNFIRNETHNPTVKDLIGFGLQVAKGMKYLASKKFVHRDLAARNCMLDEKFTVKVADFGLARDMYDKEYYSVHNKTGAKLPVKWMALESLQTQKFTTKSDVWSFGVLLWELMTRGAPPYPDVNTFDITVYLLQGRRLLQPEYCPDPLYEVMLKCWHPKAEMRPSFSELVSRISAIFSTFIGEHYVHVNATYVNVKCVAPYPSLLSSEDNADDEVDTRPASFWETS
Sequence of Serine/threonine-protein kinase 38-like (Homo sapiens) (Q9Y2H1 2-464 limits assumed): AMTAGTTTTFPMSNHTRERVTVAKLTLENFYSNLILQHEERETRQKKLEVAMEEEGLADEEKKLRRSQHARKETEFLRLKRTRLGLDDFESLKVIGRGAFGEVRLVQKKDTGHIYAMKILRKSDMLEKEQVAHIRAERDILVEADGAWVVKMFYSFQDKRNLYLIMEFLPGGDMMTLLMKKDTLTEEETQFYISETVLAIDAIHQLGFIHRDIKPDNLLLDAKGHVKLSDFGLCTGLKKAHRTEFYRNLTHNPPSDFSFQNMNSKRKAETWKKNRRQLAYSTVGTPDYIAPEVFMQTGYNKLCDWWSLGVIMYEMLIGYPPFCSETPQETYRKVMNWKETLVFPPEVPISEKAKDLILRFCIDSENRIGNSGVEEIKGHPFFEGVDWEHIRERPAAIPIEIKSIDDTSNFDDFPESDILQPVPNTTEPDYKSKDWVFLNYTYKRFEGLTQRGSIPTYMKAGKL
Sequence of Mitogen-activated protein kinase kinase kinase 2 (Homo sapiens) (Q9Y2U5 whole entry): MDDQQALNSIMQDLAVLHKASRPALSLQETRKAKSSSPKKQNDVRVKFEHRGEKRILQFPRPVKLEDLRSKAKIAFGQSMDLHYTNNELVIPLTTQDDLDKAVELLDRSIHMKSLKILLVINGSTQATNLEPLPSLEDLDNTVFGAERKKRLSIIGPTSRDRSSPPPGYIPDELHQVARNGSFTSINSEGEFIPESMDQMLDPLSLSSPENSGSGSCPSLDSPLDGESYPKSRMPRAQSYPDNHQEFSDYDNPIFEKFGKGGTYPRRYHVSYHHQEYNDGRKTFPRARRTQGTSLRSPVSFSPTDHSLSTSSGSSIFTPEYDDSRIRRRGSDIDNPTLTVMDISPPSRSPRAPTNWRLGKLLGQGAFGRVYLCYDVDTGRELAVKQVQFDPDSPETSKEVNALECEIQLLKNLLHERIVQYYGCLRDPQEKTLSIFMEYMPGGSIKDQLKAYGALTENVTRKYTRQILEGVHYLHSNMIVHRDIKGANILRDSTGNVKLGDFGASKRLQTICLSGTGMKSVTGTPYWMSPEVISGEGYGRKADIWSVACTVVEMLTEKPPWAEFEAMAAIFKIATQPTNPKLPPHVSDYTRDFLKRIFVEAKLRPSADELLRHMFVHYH
Sequence of Protein kinase C epsilon type (Homo sapiens) (Q02156 whole entry): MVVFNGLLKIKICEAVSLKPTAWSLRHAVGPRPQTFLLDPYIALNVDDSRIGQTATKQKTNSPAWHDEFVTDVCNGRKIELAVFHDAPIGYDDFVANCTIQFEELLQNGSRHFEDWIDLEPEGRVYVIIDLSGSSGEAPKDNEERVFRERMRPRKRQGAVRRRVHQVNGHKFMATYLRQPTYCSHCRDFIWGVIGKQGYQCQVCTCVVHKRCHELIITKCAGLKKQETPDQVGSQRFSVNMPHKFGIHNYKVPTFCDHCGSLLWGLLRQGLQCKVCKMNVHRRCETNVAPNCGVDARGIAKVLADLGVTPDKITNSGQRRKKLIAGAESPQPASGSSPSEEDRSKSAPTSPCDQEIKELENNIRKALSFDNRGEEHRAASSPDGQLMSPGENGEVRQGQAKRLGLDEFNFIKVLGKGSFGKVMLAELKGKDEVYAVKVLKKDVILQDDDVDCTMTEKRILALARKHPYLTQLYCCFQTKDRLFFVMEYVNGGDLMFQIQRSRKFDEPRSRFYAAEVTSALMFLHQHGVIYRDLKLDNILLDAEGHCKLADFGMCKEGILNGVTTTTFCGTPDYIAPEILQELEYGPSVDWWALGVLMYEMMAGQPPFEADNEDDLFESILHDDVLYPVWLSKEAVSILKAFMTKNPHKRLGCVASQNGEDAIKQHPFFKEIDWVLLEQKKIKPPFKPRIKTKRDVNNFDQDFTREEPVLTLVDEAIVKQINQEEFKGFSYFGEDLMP
Sequence of Eukaryotic elongation factor 2 kinase (Homo sapiens) (O00418 whole entry): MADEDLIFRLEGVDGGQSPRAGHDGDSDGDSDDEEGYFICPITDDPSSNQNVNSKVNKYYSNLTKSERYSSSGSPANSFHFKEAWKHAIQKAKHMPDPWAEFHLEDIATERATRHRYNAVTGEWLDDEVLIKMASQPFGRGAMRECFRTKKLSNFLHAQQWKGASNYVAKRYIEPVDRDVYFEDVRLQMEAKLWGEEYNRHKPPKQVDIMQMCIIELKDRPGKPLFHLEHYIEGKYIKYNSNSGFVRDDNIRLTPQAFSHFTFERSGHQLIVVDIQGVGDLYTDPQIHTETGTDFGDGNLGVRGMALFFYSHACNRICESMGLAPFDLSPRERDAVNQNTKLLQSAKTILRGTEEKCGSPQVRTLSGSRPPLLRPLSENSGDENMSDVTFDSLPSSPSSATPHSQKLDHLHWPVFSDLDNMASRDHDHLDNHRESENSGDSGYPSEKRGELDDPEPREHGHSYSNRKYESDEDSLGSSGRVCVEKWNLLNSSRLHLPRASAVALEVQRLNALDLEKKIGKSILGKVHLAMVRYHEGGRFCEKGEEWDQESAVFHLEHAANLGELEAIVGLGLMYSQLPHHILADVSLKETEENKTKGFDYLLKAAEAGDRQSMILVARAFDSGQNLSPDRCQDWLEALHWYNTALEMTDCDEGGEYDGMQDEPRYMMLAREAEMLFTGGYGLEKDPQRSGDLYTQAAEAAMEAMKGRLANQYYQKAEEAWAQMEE

CCC(F)(F)c1cc(N2CCC(S(C)(=O)=O)CC2)nc2sc(C(N)=O)c(N)c12 [BI-605906]
IC50 [1]: 921 nM (not active) | residual activity ([2]; Compound concentration 10.0 uM): 103% | residual activity ([2]; Compound concentration 100.0 uM): 102% | residual activity [3]: 83% | residual activity [4]: 125% | residual activity [5]: 102% | residual activity [6]: 102% | residual activity [7]: 85% | residual activity [8]: 78% | residual activity [9]: 62% | residual activity [10]: 127% | residual activity [11]: 74.4% | residual activity [12]: 57.7% | inhibition [13]: 26.9% | inhibition [14]: 25.7% | inhibition [15]: 3.97% | inhibition [16]: 13.3% | residual activity [17]: 100% | residual activity [18]: 97% | residual activity [19]: 87% | residual activity [20]: 91% | residual activity [21]: 96% | residual activity [22]: 100% | residual activity [23]: 99% | residual activity [24]: 99% | residual activity [25]: 92% | residual activity [26]: 91% | residual activity [27]: 99% | residual activity [28]: 87% | residual activity [29]: 100% | residual activity [30]: 91% | residual activity [31]: 98% | residual activity [32]: 99% | residual activity [33]: 96% | residual activity [34]: 99% | residual activity ([35]; Compound concentration 1.0 uM): 93% | residual activity ([35]; Compound concentration 10.0 uM): 87% | residual activity [36]: 90% | residual activity [37]: 95% | residual activity [38]: 92% | residual activity ([39]; Compound concentration 1.0 uM): 103% | residual activity ([39]; Compound concentration 10.0 uM): 90% | residual activity [40]: 105% | residual activity [41]: 93% | residual activity [42]: 99% | residual activity [43]: 91% | residual activity [44]: 99% | residual activity [45]: 91%
